In patent US8278296B2, “Manipulation of brain CDP-diacylglycerol and uses thereof” (priority 2006, dated 2012):
Entries after “also recorded” stand apart in the source; their conditions may differ.

Assays:
[1] = test system: phosphatidylinositides; assay: [3H]inositol phospholipid (phosphatidylinositide) resynthesis in rat brain slices; assay type: cell-based; conditions: for effect on PI synthesis: frontal cortex or hippocampal tissues, 5 mM LiCl; for effect on PI synthesis / effect on [3H]inositol labeling of PIs (phosphatidylinositide synthesis): 90 min; for effect on [3H]inositol labeling of PIs (phosphatidylinositide synthesis): hippocampus, frontal cortex, striatum slices
[2] = test system: CDP-diacylglycerol; assay: [3H]CDP-diacylglycerol accumulation in rat brain slices; assay type: cell-based; conditions: for effect on CDP-DG production: monoamine receptor agonists, frontal cortex or hippocampal tissues, 5 mM LiCl; for effect on CDP-DG production / effect on [3H]CDP-diacylglycerol accumulation: 90 min; for effect on [3H]CDP-diacylglycerol accumulation: rat hippocampal, prefrontal cortical and striatal slices, LiCl present
[3] = test system: rats; assay: Forced swim test; assay type: in vivo, rat; conditions: for effect on immobility times in forced swim test: modified regimen, i.p. at 3 h and 1 h before testing
Experimental: One group of rats was acclimated once in the swim chamber and subgroups of three animals each were administered indicated doses (corresponding to 0, 3, 10, and 30 mg/kg) of imipramine at 24, 3, and 1 h before behavioral testing (conventional regimen). The other group of rats from the same batch was acclimated twice at 48 and 24 h before the time of testing and subgroups were administered the same doses of imipramine at 3 and 1 h before behavioral testing. Animals in each group were then tested in the forced swim apparatus for 5 min and the immobility times determined. […] Each bar is the mean±SEM (n=6). […] Animals were prepared as in FIG. 14 for the modified regimen. […] Test drugs were administered at indicated doses 3 and 1 h before behavioral testing. […] Immobility response data for set one were analyzed by one-way ANOVA (response by dose) in order to determine if the drug by itself produced significant effects. Data for set two were analyzed by one-way ANOVA (response by group, where group comprised control, neomycin, drug, neomycin+drug), followed by posthoc Tukey tests. […] The forced swim test (FST) was applied with some modifications. Rats were transferred to the testing room between 9:00-10:00 AM and allowed at least an hour before being placed individually into translucent polypropylene cylinders (46 cm tall×25 cm in diameter) containing 27 cm depth of water maintained at 25° C. […] After 15 min in the water, the rats were removed, toweled, and allowed to dry in a warm environment before being returned to their home cage. This acclimation step was repeated after 24 h, with the exposure time reduced from 15 to 5 min. […] During the second acclimation exposure, the duration of immobility was recorded for each animal. […] To adjudge that a rat had become immobile, the animal had to float passively in the water in a slightly hunched, but upright position, making only minimal movements necessary to keep its head above the water (65-66). On the third day when animals were to undergo experimental assessment, saline or the indicated antidepressant agents were administered i.p. at 3 h and at 1 h before behavioral testing. The drugs were dissolved in distilled-deionized water and diluted in saline. Control subjects received 0.9% saline. […] Data were analyzed by one-way analysis of variance (ANOVA).

[4] = test system: inositol phosphates; assay: [3H]inositol phosphate accumulation in rat brain slices; assay type: cell-based; conditions: for effect on IP accumulation: monoamine receptor agonists, frontal cortex or hippocampal tissues, 5 mM LiCl, 90 min; for effect on accumulation of IPs: 3-300 μM, hippocampus, frontal cortex, striatum slices
[5] = test system: CDP-diacylglycerol/inositol phosphate; assay: CDP-DG/IP ratio calculated from brain slice data; assay type: cell-based, rat
Experimental: FIGS. 9A-9C are ratios of antidepressant-induced CDP-diacylglycerol versus inositol phosphates. The data in FIGS. 1A-1C, 2A-2B, 3A-3C, 4A-4B, and 5A-5C were recalculated by dividing the CDP-diacylglycerol effects of each concentration of each antidepressant agent by the corresponding effects of the agent on inositol phosphate accumulation to yield the CDP-diacylglycerol/inositol phosphate (CDP-DG/IP) ratios shown. […] Data for each agent were analyzed by One-Way ANOVA followed by posthoc Dunnett tests. ^#p<0.05; *p<0.01; compared to the respective control (zero drug concentration).
As used herein, the term “CDP-DG/IP ratio” refers to the relative value of an index which is the quotient of a level of cellular CDP-diacylglycerol divided by a level of inositol phosphate in a tissue or cell or tissue cultures thereof, e.g., a mammalian brain tissue or blood platelets, a human brain tissue or blood platelets, or other cells or tissues having the ability to metabolize CDP-diacylglycerol and phosphoinositides. Levels may be determined, but are not limited to, using molar concentration or a radiolabel.
To determine if antidepressant agents exert differential effects on CDP-DG production compared to PI hydrolysis, the ratios of CDP-DG production relative to the IPs (CDP-DG/IP ratio) in corresponding treatment conditions were examined.
Corresponding CDP-DG ratios were calculated as for the antidepressant agents. […] The ratios of CDP-DG production relative to IP accumulation are shown on the far right of the graphs in FIGS. 10A-10C and FIGS. 11A-11D.

[6] = test system: 5HT2 receptor
Experimental: Hippocampal slices were incubated with either [^3H]inositol (FIGS. 13A-13B) or [^3H]cytidine (FIG. 13C) for 30 min, followed by addition of indicated concentrations of LY53857 (6-methyl-1-(1-methylethyl)-ergoline-8β-carboxylic acid 2-hydroxy-1-methylpropyl ester maleate). […] After 60 min, tritiated inositol phosphate, inositol phospholipids, or CDP-diacylglycerol were assayed. Each bar is the mean±SEM (n=6). Data for each analyte were normalized across experiments and test drugs and then were analyzed for each drug by One-Way ANOVA of responses measured at the four concentration conditions of LY53857 (0, 0.1, 1, 10 μM). The ANOVAs were followed with Dunnett tests comparing the response in the presence of each concentration of LY53857 to the control effect of the antidepressant alone.
To examine the extent to which the enhancing effects of antidepressant agents on inositol phosphate accumulation were dependent on postsynaptic 5HT2 receptor stimulation, each antidepressant was challenged with a range of concentrations of the 5HT2 receptor-selective antagonist, LY53857 (71-72). The antagonist was added after the prelabeling phase, but 15 min prior to the addition of α-methylserotonin to the incubating slices.

[7] = test system: phosphoinositide-specific phospholipase C / PI metabolism; assay: Blockade of PI hydrolysis (neomycin, U73122) on antidepressant-induced CDP-DG, PI and IP responses in brain slices; assay type: cell-based, rat; conditions: compared with tricyclic agents
[8] = test system: 5HT2 receptor; assay: α-methylserotonin-stimulated IP accumulation in tissues prelabeled with [3H]inositol in presence of antidepressants; assay type: cell-based, rat
[9] = monoamine receptor agonists, frontal cortex or hippocampal tissues
[10] = hippocampal slices, 0.1, 1, 10 μM

SMILES: Oc1cc2c(cc1O)C(c1ccccc1)CNCC2 (racemic) [SKF38393, (+/−)-1-phenyl-2,3,4,5-tetrahydro-(1H)-3-benzazepine-7,8-diol]
- effect on PI synthesis ([1]; monoamine receptor agonists): significantly enhanced
- effect on CDP-DG production [2]: significantly increased
- effect on immobility times in forced swim test [3]: significantly decreased immobility times
- effect on IP accumulation [4]: significantly increased
- CDP-DG/IP ratio [5, 9]: increased CDP-DG/IP ratios significantly
- ratio of CDP-DG relative to PIs (CDP-DG/PI ratio) ([5]; prefrontal cortical slices): significantly enhanced
- ratio of CDP-DG relative to both inositol derivatives (CDP-DG/IP&PI) ([5]; prefrontal cortical slices): significantly enhanced

SMILES: CC(O)C(C)OC(=O)[C@@H]1C[C@@H]2c3cccc4c3c(cn4C(C)C)C[C@H]2N(C)C1.O=C(O)/C=C\C(=O)O (stereo partly drawn) [LY53857, 6-methyl-1-(1-methylethyl)-ergoline-8β-carboxylic acid 2-hydroxy-1-methylpropyl ester maleate]
- increase of basal CDP-diacylglycerol ([6]; 0.1 μM, hippocampal slices): 20%
- inhibition of IP responses to antidepressant agents ([6]; hippocampal slices, 300 μM imipramine, desipramine, paroxetine, maprotiline or 100 μM fluoxetine): completely blocked
- effect on basal levels of IPs [6, 10]: did not significantly alter
- effect on basal levels of PIs [6, 10]: did not significantly alter
- inhibition of antidepressant-induced CDP-diacylglycerol responses ([6]; hippocampal slices, all drugs): statistically significantly inhibited
- inhibition of antidepressant-induced PI labeling ([6]; hippocampal slices, all drugs): statistically significantly inhibited

SMILES: C[N+](C)(C)CCOC(N)=O [carbachol]
- effect on PI synthesis ([1]; monoamine receptor agonists): failed to increase
- effect on CDP-DG production [2]: significantly increased
- effect on IP accumulation [4]: significantly increased
- CDP-DG/IP ratio [5, 9]: dramatic decrease

SMILES: CNCCC(Oc1ccc(C(F)(F)F)cc1)c1ccccc1 (stereo not drawn) [fluoxetine]
- effect on [3H]inositol labeling of PIs (phosphatidylinositide synthesis) [1]: significantly increased
- effect on [3H]CDP-diacylglycerol accumulation [2]: significantly and dose-dependently enhanced
- sensitivity of drug effects to inhibition by U73122 [7]: more sensitive
- effect on immobility times in forced swim test [3]: significant and dose-dependent reductions
- effect on accumulation of IPs [4]: significantly and dose-dependently stimulated

SMILES: CN(C)CCCN1c2ccccc2CCc2ccccc21 [imipramine]
- effect on [3H]inositol labeling of PIs (phosphatidylinositide synthesis) [1]: significantly increased
- inhibition by 5HT2 receptor blockade (LY53857) of the drug's PI labeling / phosphatidylinositol resynthesis effect ([6]; hippocampus, similar in frontal cortex): only partially, though significantly, reduced
- effect on [3H]CDP-diacylglycerol accumulation [2]: significantly and dose-dependently enhanced
- lowest concentration with statistically significant CDP-diacylglycerol response ([2]; striatum slices, posthoc Dunnett test): 30 µM
- effect on immobility behavior in forced swim test ([3]; conventional and modified regimens, 0, 3, 10, 30 mg/kg): significant dose-related effects; also recorded: significant and dose-related
- effect on immobility times in forced swim test [3]: significant and dose-dependent reductions
- enhancement of α-methylserotonin effects on IP by prelabeling with antidepressant ([8]; frontal cortex tissues): concentration-dependently enhanced
- enhancement of α-Me5HT-induced IP accumulation by prelabeling in presence of antidepressant ([8]; hippocampus, frontal cortex, striatum): significantly enhanced
- enhancement of α-methylserotonin effects on IP by prelabeling with antidepressant ([8]; striatal tissues): not significantly enhanced
- effect on accumulation of IPs [4]: significantly and dose-dependently stimulated

SMILES: CNCCCC12CCC(c3ccccc31)c1ccccc12 [maprotiline]
- effect on [3H]inositol labeling of PIs (phosphatidylinositide synthesis) [1]: significantly increased
- effect on [3H]CDP-diacylglycerol accumulation [2]: significantly and dose-dependently enhanced
- effect on immobility times in forced swim test [3]: significant and dose-dependent reductions
- effect on accumulation of IPs [4]: significantly and dose-dependently stimulated

SMILES: NNCCc1ccccc1 [phenelzine]
- effect on [3H]inositol phospholipid synthesis (PI resynthesis) ([1]; rat cortical slices, MAOIs): significant and concentration-dependent increases
- concentration at which CDP-DG effects achieved significance ([2]; frontal cortex slices, Dunnett's): 1 µM
- effect on CDP-DG accumulation ([2]; frontal cortex slices, MAOIs): robust effects
- CDP-DG/IP ratio ([5]; antidepressant agents, increasing drug concentrations, hippocampus, similar in cortical tissues): increased significantly

SMILES: CC(N)Cc1c[nH]c2ccc(O)cc12 (stereo not drawn) [α-methylserotonin]
- effect on PI synthesis ([1]; […]): significant but relatively small effects
- effect on CDP-DG production [2]: significantly increased
- IP accumulation induced by agonist by itself ([8]; hippocampus, frontal cortex, striatum, 60 min, 5 mM LiCl): significant increases
- effect on IP accumulation [4]: significantly increased
- CDP-DG/IP ratio [5, 9]: no concentration-related increase
